Experimental data: US20240336574A1 (LATIGO BIOTHERAPEUTICS, INC., priority 2021, published 2024)
Like-named read-outs stand apart in the source and are kept apart here.

Biological target: T1, recombinant human NaV1.8 stably transfected HEK cells (Homo sapiens, UniProt Q9Y5Y9)
T1 construct: expressed in transfected cells; host or cells: HEK cells, stably transfected
Test: Compound profiling on NaV1.8, human NaV1.8 cell line, SyncroPatch384PE automated patch clamp assay (Example 102, first set of compounds, Table 16)
Format: cell-based
Settings: human NaV1.8 HEK cells, Table 16 (first set of compounds)
How it was run: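 Automated whole-cell patch clamp on HEK cells precultured at 30 °C one day before recording; CsF-based internal, 140 mM NaCl external. 10-point curve, 20–0.001 μM final, 0.1% DMSO, 5 min exposure. IC50 for resting (P1, −120 mV hold) and inactivated (P2, after 10 s at −40 mV) block, normalized to 250 μM tetracaine and DMSO.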

[1] = inactivated state block (P2 measurement), read-out: P2IC50
[2] = resting state block (P1 measurement), read-out: P1IC50

T1 sequence (Q9Y5Y9 whole entry): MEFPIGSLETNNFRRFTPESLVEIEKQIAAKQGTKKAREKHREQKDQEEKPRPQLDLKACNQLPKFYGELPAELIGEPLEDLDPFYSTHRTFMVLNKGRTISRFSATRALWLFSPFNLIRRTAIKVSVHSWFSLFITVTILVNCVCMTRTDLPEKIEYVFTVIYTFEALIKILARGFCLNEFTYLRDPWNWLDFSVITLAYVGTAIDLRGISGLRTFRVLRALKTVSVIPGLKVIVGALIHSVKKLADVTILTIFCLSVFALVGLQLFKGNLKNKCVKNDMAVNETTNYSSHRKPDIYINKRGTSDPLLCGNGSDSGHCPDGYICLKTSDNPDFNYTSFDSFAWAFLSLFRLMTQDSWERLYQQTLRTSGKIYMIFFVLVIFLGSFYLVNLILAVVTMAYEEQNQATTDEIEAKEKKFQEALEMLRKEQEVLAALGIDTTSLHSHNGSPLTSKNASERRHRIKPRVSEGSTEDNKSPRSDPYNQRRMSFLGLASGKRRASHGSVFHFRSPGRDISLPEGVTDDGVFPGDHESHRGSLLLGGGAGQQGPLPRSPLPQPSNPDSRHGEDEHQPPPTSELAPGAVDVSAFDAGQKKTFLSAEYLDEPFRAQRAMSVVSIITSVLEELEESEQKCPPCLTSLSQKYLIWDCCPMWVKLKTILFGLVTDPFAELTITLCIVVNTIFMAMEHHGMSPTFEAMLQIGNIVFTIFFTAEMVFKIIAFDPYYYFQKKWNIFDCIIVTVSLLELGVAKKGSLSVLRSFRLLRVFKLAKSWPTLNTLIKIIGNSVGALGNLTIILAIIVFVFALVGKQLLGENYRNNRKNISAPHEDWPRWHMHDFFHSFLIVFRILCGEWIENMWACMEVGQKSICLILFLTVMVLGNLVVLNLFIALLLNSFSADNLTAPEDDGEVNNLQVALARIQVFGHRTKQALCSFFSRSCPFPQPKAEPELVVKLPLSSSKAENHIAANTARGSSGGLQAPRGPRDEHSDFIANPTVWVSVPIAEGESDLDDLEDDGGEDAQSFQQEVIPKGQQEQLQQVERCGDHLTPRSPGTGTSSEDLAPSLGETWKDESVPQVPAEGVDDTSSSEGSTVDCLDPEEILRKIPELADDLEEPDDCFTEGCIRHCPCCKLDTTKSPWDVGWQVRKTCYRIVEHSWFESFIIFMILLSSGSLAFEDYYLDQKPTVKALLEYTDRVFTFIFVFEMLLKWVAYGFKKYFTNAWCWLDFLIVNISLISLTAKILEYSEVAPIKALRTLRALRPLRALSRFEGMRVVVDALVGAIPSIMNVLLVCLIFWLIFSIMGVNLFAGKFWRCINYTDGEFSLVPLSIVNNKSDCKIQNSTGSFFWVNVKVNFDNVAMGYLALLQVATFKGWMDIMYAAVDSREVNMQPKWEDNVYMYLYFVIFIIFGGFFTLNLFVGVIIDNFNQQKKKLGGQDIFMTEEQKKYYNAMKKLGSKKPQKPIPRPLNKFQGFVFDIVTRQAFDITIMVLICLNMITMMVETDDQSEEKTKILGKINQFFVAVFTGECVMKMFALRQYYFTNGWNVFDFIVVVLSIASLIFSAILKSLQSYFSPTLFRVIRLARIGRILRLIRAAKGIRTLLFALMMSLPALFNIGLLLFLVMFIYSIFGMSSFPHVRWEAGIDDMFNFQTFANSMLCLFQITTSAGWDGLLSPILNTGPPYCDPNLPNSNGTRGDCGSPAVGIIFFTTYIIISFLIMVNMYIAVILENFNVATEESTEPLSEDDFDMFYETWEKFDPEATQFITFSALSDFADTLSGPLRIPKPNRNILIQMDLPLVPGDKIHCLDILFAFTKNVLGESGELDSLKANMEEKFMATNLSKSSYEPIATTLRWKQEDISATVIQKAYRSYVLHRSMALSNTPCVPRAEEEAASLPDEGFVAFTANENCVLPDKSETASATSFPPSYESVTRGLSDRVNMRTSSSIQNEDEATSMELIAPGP

SMILES	IC50 [1] [nM]	IC50 [2] [nM]
CSc1cccc(NC(=O)c2c(Oc3ccc(C#N)cc3C)nnc(C(F)(F)F)c2C)c1 [Compound 14, 3-(4-Cyano-2-methylphenoxy)-5-methyl-N-[3-(methylsulfanyl)phenyl]-6-(trifluoromethyl)pyridazine-4-carboxamide]	200 to 500	200 to 500
Cc1cc(F)ccc1Oc1nnc(C(F)(F)F)c(NC2CNC2)c1C(=O)Nc1cccc([S@@](C)(=N)=O)c1 [Compound 1523, (S)-5-(azetidin-3-ylamino)-3-(4-fluoro-2-methylphenoxy)-N-(3-(S-methylsulfonimidoyl)phenyl)-6-(trifluoromethyl)pyridazine-4-carboxamide]	200 to 500	200 to 500
CS(=O)(=O)c1cccc(NC(=O)c2cc(C(F)(F)F)cnc2Oc2cnc(Cl)c3ccccc23)c1 [Compound 1582]	200 to 500	200 to 500
CS(=O)(=O)c1cccc(NC(=O)c2cc(C(F)(F)F)cnc2Oc2cccc(OC(F)(F)F)c2)c1 [Compound 1657]	200 to 500	200 to 500
CS(=N)(=O)c1cccc(NC(=O)c2cc(C(F)(F)F)cnc2Oc2ccc(-c3ccccc3)cc2)c1 (centres unmarked) [Compound 1585]	200 to 500	200 to 500
COc1cc(C#N)ccc1Oc1ncc(C2CCOCC2)cc1C(=O)Nc1cccc(S(C)(=N)=O)c1 (centres unmarked) [Compound 1727, 2-(4-cyano-2-methoxy-phenoxy)-N-[3-(methylsulfonimidoyl)phenyl]-5-tetrahydropyran-4-yl-pyridine-3-carboxamide]	200 to 500	200 to 500
COc1cc(F)c(Oc2ncc(C(F)(F)F)cc2C(=O)Nc2cccc(C(N)=O)c2)cc1F [Compound 1638]	200 to 500	200 to 500
COc1cc(C)c(Oc2ncc(C(F)(F)F)cc2C(=O)Nc2cccc(S(C)(=N)=O)c2)cc1C#N (centres unmarked) [Compound 1621]	200 to 500	200 to 500
CS(=O)(=O)c1cccc(NC(=O)c2cc(C(F)(F)F)cnc2Oc2cncc3ccccc23)c1 [Compound 1581]	200 to 500	200 to 500
Cc1cc(F)ccc1COc1ncc(C(F)(F)F)cc1C(=O)Nc1cccc(S(C)(=O)=O)c1 [Compound 1596]	200 to 500	200 to 500
COc1cc(F)c(Oc2ncc(C(F)(F)F)cc2C(=O)Nc2cccc(S(C)(=N)=O)c2)cc1F (centres unmarked) [Compound 1637]	200 to 500	200 to 500
COc1cc(C#N)cc(Oc2ncc(C(F)(F)F)cc2C(=O)Nc2cccc(S(C)(=N)=O)c2)c1 (centres unmarked) [Compound 1592]	200 to 500	200 to 500
NC(=O)c1ccc(NC(=O)c2cc(C(F)(F)F)cnc2Oc2ccc(C(F)F)nc2)cc1 [Compound 1676]	200 to 500	200 to 500
Cc1ccc2c(Oc3ncc(C(F)(F)F)cc3C(=O)Nc3cccc(S(C)(=O)=O)c3)cccc2n1 [Compound 1625]	200 to 500	200 to 500
Cc1ccc(Oc2nnc(C(F)(F)F)c(C)c2C(=O)Nc2cccc(S(C)(=O)=O)c2)c(C)n1 [Compound 1420]	200 to 500	200 to 500
CS(=N)(=O)c1cccc(NC(=O)c2cc(C(F)(F)F)cnc2OC2CC(C#N)C2)c1 (centres unmarked) [Compound 1665]	200 to 500	200 to 500
NC(=O)c1cccc(NC(=O)c2cc(C(F)(F)F)cnc2Oc2cnc(C(F)(F)F)nc2)c1 [Compound 1695]	200 to 500	200 to 500

Results, then the compound that gave them:

IC50 [1] [nM]	IC50 [2] [nM]	SMILES
20 to 40	20 to 40	COc1cc(C#N)ccc1Oc1nnc(-c2ccc(C(F)F)cc2)c(C)c1C(=O)Nc1cccc([S@@](C)(=N)=O)c1 [Compound 1533, 3-(4-cyano-2-methoxyphenoxy)-6-[4-(difluoromethyl)phenyl]-N-{3-[(S)-imino(methyl)oxo-λ^6-sulfanyl]phenyl}-5-methylpyridazine-4-carboxamide]
20 to 40	≤ 20	Cc1cc(F)ccc1Oc1nnc(C(F)(F)F)c(C)c1C(=O)Nc1cccc(S(C)(=N)=O)c1 (centres unmarked) [Compound 20, 3-(4-Fluoro-2-methylphenoxy)-5-methyl-N-(3-(S-methylsulfonimidoyl)phenyl)-6-(trifluoromethyl)pyridazine-4-carboxamide]
≤ 20	≤ 20	CS(=N)(=O)c1cccc(NC(=O)c2cc(C(F)(F)F)cnc2Oc2cccnc2OC(F)(F)F)c1 (centres unmarked) [Compound 1636]
40 to 200	40 to 200	COc1cc(C#N)ccc1Oc1nc(C(F)(F)F)nc(C)c1C(=O)Nc1ccc(C(N)=O)cc1 [Compound 1744, N-(4-carbamoylphenyl)-4-(4-cyano-2-methoxy-phenoxy)-6-methyl-2-(trifluoromethyl)pyrimidine-5-carboxamide]
40 to 200	40 to 200	Cc1cc(F)ccc1Oc1nnc(C(F)(F)F)c(C)c1C(=O)Nc1ccnc(C(N)=O)c1 [Compound 1408]
40 to 200	40 to 200	Cc1c(C(F)(F)F)nnc(Oc2c(F)cc(OC(F)(F)F)cc2F)c1C(=O)Nc1cccc(S(C)(=N)=O)c1 (centres unmarked) [Compound 1514, 3-[2,6-difluoro-4-(trifluoromethoxy)phenoxy]-N-{3-[imino(methyl)oxo-λ^6-sulfanyl]phenyl}-5-methyl-6-(trifluoromethyl)pyridazine-4-carboxamide]
40 to 200	200 to 500	COc1ncc(-c2nnc(Oc3ccc(C#N)cc3OC)c(C(=O)Nc3cccc(S(C)(=N)=O)c3)c2C)s1 (centres unmarked) [Compound 1461, 3-(4-cyano-2-methoxy-phenoxy)-6-(2-methoxythiazol-5-yl)-5-methyl-N-[3-(methylsulfonimidoyl)phenyl]pyridazine-4-carboxamide; formic acid]
≤ 20	≤ 20	COc1ccc(Oc2nnc(C(F)(F)F)c(C)c2C(=O)Nc2cccc(S(C)(=O)=O)c2)c(C)c1F [Compound 1427]
≤ 20	≤ 20	Cc1c(Oc2nnc(C(F)(F)F)c(C)c2C(=O)Nc2cccc(S(C)(=O)=O)c2)ccc(Cl)c1F [Compound 1421]
≤ 20	≤ 20	COc1c(Oc2nnc(C(F)(F)F)c(C)c2C(=O)Nc2cccc(C(N)=O)c2)ccc(F)c1F [Compound 1549, N-(3-carbamoylphenyl)-3-(3,4-difluoro-2-methoxy-phenoxy)-5-methyl-6-(trifluoromethyl)pyridazine-4-carboxamide]
≤ 20	20 to 40	Cc1cc(C(F)(F)F)ccc1Oc1ncc(C(F)(F)F)cc1C(=O)Nc1cccc(S(C)(=O)=O)c1 [Compound 1595]
≤ 20	≤ 20	Cc1c(Oc2ncc(C(F)(F)F)cc2C(=O)Nc2cccc(S(C)(=N)=O)c2)ccc(OC(F)(F)F)c1F (centres unmarked) [Compound 1712]
≤ 20	≤ 20	Cc1c(Oc2nnc(C(F)(F)F)c(C)c2C(=O)Nc2cccc(S(C)(=N)=O)c2)ccc(Cl)c1F (centres unmarked) [Compound 1486, 3-(4-chloro-3-fluoro-2-methyl-phenoxy)-5-methyl-N-[3-(methylsulfonimidoyl)phenyl]-6-(trifluoromethyl)pyridazine-4-carboxamide]
20 to 40	20 to 40	COc1c(Oc2ncc(C#N)cc2C(=O)Nc2cccc(S(C)(=N)=O)c2)ccc(F)c1F (centres unmarked) [Compound 1723, 5-cyano-2-(3,4-difluoro-2-methoxy-phenoxy)-N-[3 (methylsulfonimidoyl)phenyl]pyridine-3-carboxamide]
40 to 200	40 to 200	COc1cc(C#N)ccc1Oc1nnc(C2CC2(F)F)c(C)c1C(=O)Nc1cccc([S@@](C)(=N)=O)c1 (stereo partly drawn) [Compound 1528, 3-(4-cyano-2-methoxyphenoxy)-6-(2,2-difluorocyclopropyl)-N-{3-[(S)-imino(methyl)oxo-λ^6-sulfanyl]phenyl}-5-methylpyridazine-4-carboxamide]
40 to 200	40 to 200	COc1cc(C#N)ccc1Oc1ncc(C(F)(F)F)cc1C(=O)Nc1ccc[n+]([O-])c1 [Compound 1702]
≤ 20	≤ 20	COc1c(Oc2ncc(Br)cc2C(=O)Nc2ccc(C(N)=O)cc2)ccc(F)c1F [Compound 1569, 5-bromo-N-(4-carbamoylphenyl)-2-(3,4-difluoro-2-methoxy-phenoxy)pyridine-3-carboxamide]
20 to 40	20 to 40	COc1cc(C#N)ccc1Oc1nnc(C(F)(F)F)c(C)c1C(=O)Nc1cccc(C#N)c1 [Compound 1548, 3-(4-cyano-2-methoxy-phenoxy)-N-(3-cyanophenyl)-5-methyl-6-(trifluoromethyl)pyridazine-4-carboxamide]
20 to 40	40 to 200	COc1cc(C#N)ccc1Oc1nnc(C(F)(F)F)c(C)c1C(=O)Nc1ccc[n+]([O-])c1 [Compound 1544, 3-(4-cyano-2-methoxy-phenoxy)-5-methyl-N-(1-oxidopyridin-1-ium-3-yl)-6-(trifluoromethyl)pyridazine-4-carboxamide]
40 to 200	40 to 200	COc1cc(C#N)ccc1Oc1nnc(C(F)(F)F)c(C)c1C(=O)Nc1cncc(C#N)c1 [Compound 1540, 3-(4-cyano-2-methoxy-phenoxy)-N-(5-cyano-3-pyridyl)-5-methyl-6-(trifluoromethyl)pyridazine-4-carboxamide]
≤ 20	≤ 20	Cc1cc(F)ccc1Oc1ncc(C(F)(F)F)cc1C(=O)Nc1cccc([S@@](C)(=O)=NC(=O)CN(C)C(=O)OC(C)(C)C)c1 [Compound 1719, tert-butyl (R)-(2-(((3-(2-(4-fluoro-2-methylphenoxy)-5-(trifluoromethyl)nicotinamido)phenyl)(methyl)(oxo)-λ^6-sulfaneylidene)amino)-2-oxoethyl)(methyl)carbamate]
40 to 200	40 to 200	CS(=N)(=O)c1cccc(NC(=O)c2cc(C(F)(F)F)cnc2OC2CC(C(F)(F)F)C2)c1 (mixture of isomers) [Compound 1666]
≤ 20	20 to 40	COc1c(Oc2ncc(Br)cc2C(=O)Nc2ccnnc2)ccc(F)c1F [Compound 1683]
